Laboratory results: patent USRE40086E1, “Method for treating bacterial infection with novel 7-substituted-9-substituted amino 6-demethyl-6-deoxytetracyclines” (Wyeth Holdings Corporation, priority 1991, dated 2008)
Structures can show the parent of a compound that is named as a salt.

Assays:
[1] = system: S. aureus UBMS 88-4 (Sensitive); experiment: MIC, agar dilution; type: cell-based; conditions: S. aureus UBMS 88-4; Table IA; unit assumed
[2] = system: E. coli UBMS 89-2 (Sensitive); experiment: MIC, agar dilution; type: cell-based; conditions: E. coli UBMS 89-2 Tet Sens.; Table IA; unit assumed
[3] = system: E. coli ATCC 25922; experiment: MIC, agar dilution; type: cell-based; conditions: E. coli ATCC 25922; Table IA; unit assumed
[4] = system: S. aureus UBMS 90-2 (tetM); experiment: MIC, agar dilution; type: cell-based; conditions: S. aureus UBMS 90-2 TetM; Table IA; unit assumed
[5] = system: S. aureus NEMC 8769/89-4; experiment: MIC, agar dilution (Table IA); type: cell-based; conditions: unit assumed
[6] = system: S. aureus SMITH (sens); experiment: In vivo antibacterial evaluation, acute lethal infection in mice; conditions: Oral
Source text: In Vivo Antibacterial Evaluation (Table VII)

[7] = system: S. aureus IVES 1983 (meth. resistant); experiment: MIC, agar dilution; type: cell-based; conditions: S. aureus IVES 1983; Table IA; unit assumed
[8] = system: E. coli UBMS 90-4 (tetM); experiment: MIC, agar dilution; type: cell-based; conditions: E. coli UBMS 90-4 TetM; Table IA; unit assumed
[9] = system: E. coli J2175; experiment: MIC, agar dilution (Table IA); type: cell-based; conditions: unit assumed
[10] = system: E. coli BAJ9003; experiment: MIC, agar dilution (Table IA); type: cell-based; conditions: unit assumed
[11] = system: X. maltophilia NEMC 87210; experiment: MIC, agar dilution (Table IA); type: cell-based; conditions: unit assumed
[12] = system: E. faecalis ATCC 29212; experiment: MIC, agar dilution; type: cell-based; conditions: E. faecalis ATCC 29212; Table IA; unit assumed
[13] = system: S. haemolyticus AVAH 88-3; experiment: MIC, agar dilution; type: cell-based; conditions: S. hemolyticus AVHAH 88-3; Table IA; unit assumed
[14] = system: E. coli UBMS 89-1 (tetM); experiment: MIC, agar dilution; type: cell-based; conditions: E. coli UBMS 89-1 TetM; Table IA; unit assumed
[15] = system: E. coli #311 (MP); experiment: MIC, agar dilution (Table IA); type: cell-based; conditions: unit assumed
[16] = system: E. coli PRP1 TetA; experiment: MIC, agar dilution (Table IA); type: cell-based; conditions: unit assumed
[17] = system: S. aureus UBMS 88-7 (tetK); experiment: MIC, agar dilution; type: cell-based; conditions: S. aureus UBMS 88-7 TetK; Table IA; unit assumed
[18] = system: E. coli UBMS 88-1 (tetB); experiment: MIC, agar dilution; type: cell-based; conditions: E. coli UBMS 88-1 TetB; Table IA; unit assumed
[19] = system: E. coli MC4100 Tet sens.; experiment: MIC, agar dilution (Table IA); type: cell-based; conditions: unit assumed
[20] = system: Ps. acruginosa ATCC 27853; experiment: MIC, agar dilution (Table IA); type: cell-based; conditions: unit assumed
[21] = system: S. aureus IVES 2943 (meth. resistant); experiment: MIC, agar dilution; type: cell-based; conditions: S. aureus IVES 2943; Table IA; unit assumed
[22] = system: S. mariescens FDOR 8733; experiment: MIC, agar dilution (Table IA); type: cell-based; conditions: unit assumed
[23] = system: S. aureus ROSE (MP); experiment: MIC, agar dilution (Table IA); type: cell-based; conditions: unit assumed
[24] = system: E. coli UBMS 90-5; experiment: MIC, agar dilution (Table IA); type: cell-based; conditions: unit assumed
[25] = system: S. aureus UBMS 90-1 (tetM); experiment: MIC, agar dilution; type: cell-based; conditions: S. aureus UBMS 90-1 TetM; Table IA; unit assumed
[26] = system: E. coli J3272 TetD; experiment: MIC, agar dilution (Table IA); type: cell-based; conditions: unit assumed
[27] = system: E. coli J3272 TetC; experiment: MIC, agar dilution (Table IA); type: cell-based; conditions: unit assumed
[28] = system: E. faecalis 12201; experiment: MIC, agar dilution; type: cell-based; conditions: Enterococcus 12201; Table IA; unit assumed
[29] = system: S. aureus ATCC 29213 (Sensitive); experiment: MIC, agar dilution; type: cell-based; conditions: S. aureus ATCC 29213; Table IA; unit assumed
[30] = system: S. aureus UBMS 88-5 (tetM); experiment: MIC, agar dilution; type: cell-based; conditions: S. aureus UBMS 88-5 TetM; Table IA; unit assumed
[31] = system: E. coli MC4100 TetB; experiment: MIC, agar dilution (Table IA); type: cell-based; conditions: unit assumed
[32] = system: S. aureus Smith (Sensitive); experiment: MIC, agar dilution; type: cell-based; conditions: S. aureus SMITH (MP); Table IA; unit assumed
[33] = system: S. aureus UBMS 90-3 (Sensitive); experiment: MIC, agar dilution; type: cell-based; conditions: S. aureus UBMS 90-3; Table IA; unit assumed
[34] = system: S. aureus SMITH (sens); experiment: In vivo antibacterial evaluation, acute lethal infection in mice; conditions: Intraveneous
[35] = system: TetM S30 extract, derivative of E. coli MRE600 containing the tetM determinant; experiment: E. coli in vitro transcription and protein translation, 35S-methionine incorporation (Table VIII)
[36] = system: E. coli J3272 Tet sens.; experiment: MIC, agar dilution (Table IA); type: cell-based; conditions: unit assumed
[37] = system: Wild Type S30 extract, E. coli strain MRE600 (tetracycline sensitive); experiment: E. coli in vitro transcription and protein translation, 35S-methionine incorporation (Table VIII)

CCCCCCNCC(=O)Nc1cc(N(C)C)c2c(c1O)C(=O)C1=C(O)[C@]3(O)C(=O)C(C(N)=O)=C(O)[C@@H](N(C)C)C3CC1C2 (stereo partly drawn) [BBB, [4S-(4alpha,12aalpha)]-4,7-Bis(dimethylamino)-9-[[(hexylamino)acetyl]amino]-1,4,4a,5,5a,6,11,12a-octahydro-3,10,12,12a-tetrahydroxy-1,11-dioxo-2-naphthacenecarboxamide dihydrochloride]
0.06 µg/mL: Antibacterial activity (MIC) [5] | Antibacterial activity (MIC) [10] | Antibacterial activity (MIC) [33]
2 µg/mL: Antibacterial activity (MIC) [17]
0.5 µg/mL: Antibacterial activity (MIC) [13] | Antibacterial activity (MIC) [15] | Antibacterial activity (MIC) [16] | Antibacterial activity (MIC) [18] | Antibacterial activity (MIC) [27] | Antibacterial activity (MIC) [30] | Antibacterial activity (MIC) [31]
4 to 8 mg/kg: ED50 [6]
1.8 mg/kg: ED50 [34]
4 µg/mL: Antibacterial activity (MIC) [7] | Antibacterial activity (MIC) [11] | Antibacterial activity (MIC) [21] | Antibacterial activity (MIC) [22]
0.12 µg/mL: Antibacterial activity (MIC) [3] | Antibacterial activity (MIC) [12] | Antibacterial activity (MIC) [26] | Antibacterial activity (MIC) [32]
0.25 µg/mL: Antibacterial activity (MIC) [1] | Antibacterial activity (MIC) [2] | Antibacterial activity (MIC) [4] | Antibacterial activity (MIC) [8] | Antibacterial activity (MIC) [9] | Antibacterial activity (MIC) [14] | Antibacterial activity (MIC) [19] | Antibacterial activity (MIC) [24] | Antibacterial activity (MIC) [25] | Antibacterial activity (MIC) [28] | Antibacterial activity (MIC) [29]
16 µg/mL: Antibacterial activity (MIC) [20] | Antibacterial activity (MIC) [23]

CCCNCC(=O)Nc1cc(N(C)C)c2c(c1O)C(=O)C1=C(O)C3(O)C(=O)C(C(N)=O)=C(O)C(N(C)C)C3CC1C2.Cl.Cl (stereo not drawn) [WW, [4S-(4alpha,12aalpha)]-4,7-bis(dimethylamino)-1,4,4a,5,5a,6,11,12a-octahydro-3,10,12,12a-tetra-hydroxy-1,11-dioxo-9-[[(propylamino)acetyl]amino]-2-naphthacenecarboxamide dihydrochloride]
99%: % INHIBITION Wild Type S30 ([37]; 0.2 mg/ml) | % INHIBITION Wild Type S30 ([37]; 1.0 mg/ml)
88%: % INHIBITION TetM S30 ([35]; 0.06 mg/ml)
0.5 µg/mL: Antibacterial activity (MIC) [11]
0.12 µg/mL: Antibacterial activity (MIC) [25] | Antibacterial activity (MIC) [26] | Antibacterial activity (MIC) [28] | Antibacterial activity (MIC) [32] | Antibacterial activity (MIC) [33]
0.06 µg/mL: Antibacterial activity (MIC) [5] | Antibacterial activity (MIC) [10]
2 µg/mL: Antibacterial activity (MIC) [7] | Antibacterial activity (MIC) [21] | Antibacterial activity (MIC) [22] | Antibacterial activity (MIC) [23]
93%: % INHIBITION Wild Type S30 ([37]; 0.06 mg/ml)
8 µg/mL: Antibacterial activity (MIC) [20]
98%: % INHIBITION TetM S30 ([35]; 1.0 mg/ml)
0.25 µg/mL: Antibacterial activity (MIC) [1] | Antibacterial activity (MIC) [2] | Antibacterial activity (MIC) [3] | Antibacterial activity (MIC) [4] | Antibacterial activity (MIC) [8] | Antibacterial activity (MIC) [9] | Antibacterial activity (MIC) [12] | Antibacterial activity (MIC) [13] | Antibacterial activity (MIC) [14] | Antibacterial activity (MIC) [15] | Antibacterial activity (MIC) [18] | Antibacterial activity (MIC) [36] | Antibacterial activity (MIC) [24] | Antibacterial activity (MIC) [27] | Antibacterial activity (MIC) [29] | Antibacterial activity (MIC) [30] | Antibacterial activity (MIC) [31]
>16 mg/kg: ED50 [6]
1 µg/mL: Antibacterial activity (MIC) [16] | Antibacterial activity (MIC) [17]
97%: % INHIBITION TetM S30 ([35]; 0.2 mg/ml)
0.82 mg/kg: ED50 [34]

CC(C(=O)Nc1cc(N(C)C)c2c(c1O)C(=O)C1=C(O)[C@]3(O)C(=O)C(C(N)=O)=C(O)[C@@H](N(C)C)C3CC1C2)N(C)C.Cl.Cl (stereo partly drawn) [XX]
98%: % INHIBITION Wild Type S30 ([37]; 1.0 mg/ml)
0.12 µg/mL: Antibacterial activity (MIC) [5] | Antibacterial activity (MIC) [12] | Antibacterial activity (MIC) [14] | Antibacterial activity (MIC) [28]
0.5 to 1 mg/kg: ED50 [34]
97%: % INHIBITION TetM S30 ([35]; 1.0 mg/ml)
32 µg/mL: Antibacterial activity (MIC) [20]
4 µg/mL: Antibacterial activity (MIC) [22]
78%: % INHIBITION TetM S30 ([35]; 0.06 mg/ml)
0.06 µg/mL: Antibacterial activity (MIC) [10]
85%: % INHIBITION Wild Type S30 ([37]; 0.06 mg/ml)
0.25 µg/mL: Antibacterial activity (MIC) [1] | Antibacterial activity (MIC) [4] | Antibacterial activity (MIC) [25] | Antibacterial activity (MIC) [26] | Antibacterial activity (MIC) [29] | Antibacterial activity (MIC) [30] | Antibacterial activity (MIC) [32] | Antibacterial activity (MIC) [33]
1 µg/mL: Antibacterial activity (MIC) [7] | Antibacterial activity (MIC) [16] | Antibacterial activity (MIC) [17] | Antibacterial activity (MIC) [21] | Antibacterial activity (MIC) [23] | Antibacterial activity (MIC) [27] | Antibacterial activity (MIC) [31]
96%: % INHIBITION Wild Type S30 ([37]; 0.2 mg/ml)
8 to 16 mg/kg: ED50 [6]
0.5 µg/mL: Antibacterial activity (MIC) [2] | Antibacterial activity (MIC) [3] | Antibacterial activity (MIC) [8] | Antibacterial activity (MIC) [9] | Antibacterial activity (MIC) [11] | Antibacterial activity (MIC) [13] | Antibacterial activity (MIC) [15] | Antibacterial activity (MIC) [18] | Antibacterial activity (MIC) [36] | Antibacterial activity (MIC) [24]
89%: % INHIBITION TetM S30 ([35]; 0.2 mg/ml)
